Results taken from paper doi:10.1101/2024.06.04.597308v2 (biorxiv, 2024).
Where a chain is given by its changes, count along the chain named.

Key:
Assay in all cases: isothermal titration calorimetry
Assay type in all cases: binding
[1] = target: T1, 3β-OH-Δ^5-6-cholesterol-5β-reductase (5βChR); putative cholesterol dehydrogenase (Limosilactobacillus fermentum, UniProt A0ABF7R4H0, S139A); settings: catalytic tetrad mutant
T1 sequence (A0ABF7R4H0 1-249 S139A): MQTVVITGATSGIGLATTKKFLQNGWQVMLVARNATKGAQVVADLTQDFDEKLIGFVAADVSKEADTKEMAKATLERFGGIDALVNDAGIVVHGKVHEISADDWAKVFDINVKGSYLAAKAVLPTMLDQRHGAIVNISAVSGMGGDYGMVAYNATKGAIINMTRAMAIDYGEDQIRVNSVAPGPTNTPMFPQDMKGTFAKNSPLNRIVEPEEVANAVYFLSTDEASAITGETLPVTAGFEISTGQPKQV

[2] = target: T2, 3β-OH-Δ^5-6-cholesterol-5β-reductase (5βChR); putative cholesterol dehydrogenase (Limosilactobacillus fermentum, UniProt A0ABF7R4H0, Y152A); settings: catalytic tetrad mutant
T2 sequence (A0ABF7R4H0 1-249 Y152A): T1 sequence (A0ABF7R4H0 1-249 S139A) with A139S, Y152A

[3] = target: T3, 3β-OH-Δ^5-6-cholesterol-5β-reductase (5βChR); putative cholesterol dehydrogenase (Limosilactobacillus fermentum, UniProt A0ABF7R4H0, M189A); settings: NADP+ titration; C-terminal substrate-pocket mutant
T3 sequence (A0ABF7R4H0 1-249 M189A): T1 sequence (A0ABF7R4H0 1-249 S139A) with A139S, M189A

[4] = target: T4, 3β-OH-Δ^5-6-cholesterol-5β-reductase (5βChR); putative cholesterol dehydrogenase (Limosilactobacillus fermentum, UniProt A0ABF7R4H0, T187A); settings: NADP+ titration; C-terminal substrate-pocket mutant
T4 sequence (A0ABF7R4H0 1-249 T187A): T1 sequence (A0ABF7R4H0 1-249 S139A) with A139S, T187A

[5] = target: T5, 3β-OH-Δ^5-6-cholesterol-5β-reductase (5βChR); putative cholesterol dehydrogenase (Limosilactobacillus fermentum, UniProt A0ABF7R4H0, F190A); settings: NADP+ titration; C-terminal substrate-pocket mutant
T5 sequence (A0ABF7R4H0 1-249 F190A): T1 sequence (A0ABF7R4H0 1-249 S139A) with A139S, F190A

SMILES | Kd [1] [µM] | Kd [2] [µM] | Kd [3] [µM] | Kd [4] [µM] | Kd [5] [µM]
CC(C)CCC[C@@H](C)[C@H]1CC[C@H]2[C@@H]3CC=C4C[C@@H](O)CC[C@]4(C)[C@H]3CC[C@]12C [cholesterol] | 24.8 | 4.44 | – | – | –
NC(=O)c1ccc[n+]([C@@H]2O[C@H](COP(=O)(O)OP(=O)(O)OC[C@H]3O[C@@H](n4cnc5c(N)ncnc54)[C@H](OP(=O)(O)O)[C@@H]3O)[C@@H](O)[C@H]2O)c1 [NADP^+] | – | – | 7.49 | 8.77 | 5.2
